# Tests used:
# [1] = system: prostate cancer (LNCaP and PC-3) and prostate cancer (RC77 T/E and MDA PCa 2b) cell lines; assay: BrdU-labeling cell proliferation assay; assay type: cell-based, human; conditions: PC-3, RC77 T/E and MDA PCa 2b, 48 h transfection, vs NS
# Protocol: […] RC77 T/E, a primary prostate cancer cell line derived from a patient, was kindly provided by Dr. Johng Rhim at Center for Prostate Disease Research (CPDR) in Rockville, MD. LNCaP and PC-3 were served as prostate cancer cell line models, and RC77 T/E and MDA PCa 2b were served as prostate cancer cell models in the study. The cells were cultured in specific cell culture media, LNCaP was cultured in RPMI with 10% fetal bovine serum (FBS), PC-3 was cultured in DMEM with 10% FBS, MDA PCa 2b were cultured in BRFF-HPC1 with 20% FBS and RC77 T/E was cultured in Keratinocyte SFM with Human Recombinant Epidermal Growth Factor (EGF 1-53) and Bovine Pituitary Extract (BPE). Cells were maintained at 37° C. in a 5% CO2 incubator. LNCaP, PC-3 and MDA PCa 2b cells were seeded at density 3×10^4 cells/well in 6-well plates. RC77 T/E cells were seeded at density 5×10^4 cells/well in 6-well plates. […]
# LNCaP, PC-3, RC77 T/E and MDA PCa 2b cells were seeded at density 3×10^4 cells/well in 6-well culture plates. […] 100 μL of stop solution was used to stop further reaction and followed by checking absorbance at dual wavelengths of 450 nm and 540 nm using Multiskan FC microplate photometer (Thermo Scientific).
# mTOR and pmTOR = assay: Western blot of mTOR and pmTOR in cytoplasmic and nuclear fractions of colon, breast and lung cancer cells; assay type: cell-based, human; conditions: breast, lung cancer cells
# Text: The human cell lines used in the study included: 22Rv1, LNCaP, PC-3, RC77 T/E and MDA PCa 2b (prostate cancer cell lines), MDA MB 231 and MCF-7 (breast cancer cell lines), HT-29 and SW620 (colon cancer cell lines), A549 and H1299 (lung cancer cell lines). RWPE-1, HMEC, FHC, and BEAS-2B were used as normal control cell lines for prostate, breast, colon, and lung, respectively. Note that 22Rv1 is a castration-resistant […] prostate cancer cell line, while LNCaP and PC-3 were derived from lymph node and bone metastasis of […] prostate cancer patients, respectively. RC77 T/E was derived from a primary prostate cancer patient, and MDA PCa 2b was derived from bone metastasis of an prostate cancer patient. The cell lines described were used as in vitro cell models to evaluate the functional roles of miR-99b-5p/MTOR pairing in the […] prostate cancer, African American prostate cancer and solid tumors in general. The cells were grown in specific cell culture media described as follows: 22Rv1, LNCaP, MCF-7 and H1299 were cultured in RPMI-1640 with 10% fetal bovine serum (FBS), PC-3, A549 and FHC were cultured in DMEM with 10% FBS, RC77 T/E was cultured in Keratinocyte SFM with human recombinant epidermal growth factor (EGF) and bovine pituitary extract (BPE), MDA PCa 2b were cultured in BRFF-HPC1 with 20% FBS, HT-29 was cultured in McCory's with 10% FBS, SW620 and MDA MB 231 were cultured in L-15 with 10% FBS, HMEC was cultured in mammary epithelial cell basal medium with supplements, and BEAS-2B was cultured in BEBM base medium with BEBM supplement kit. Cells were maintained at 37° C. in a 5% CO2 incubator.
# The 22Rv1, LNCaP, PC-3, MDA PCa 2b, MCF7, H1299, A549, HT-29, SW620, MDA MB-231, HMEC and BEAS-2B cells were seeded at a density of 3×10^5 cells/well in 6-well plates. RC77 T/E cells were seeded at a density of 5×10^5 cells/well in 6-well plates. The cells were grown for 24 h and then transfected with nonsense/scrambled RNA (NS) and miR-99b-5p mimic (Ambion) using DharmaFECT4 transfection reagent (Dharmacon). After 24 h, fresh media were applied to replace the transfection reagent-containing media, then the cells were incubated for an additional 24 h.
# The total proteins were extracted using M-PER extraction reagent with protease and phosphatase inhibitor cocktail (Thermo Fisher Scientific) according to manufacturer's protocol. […] Equal amounts of proteins were used based on the quantification using BCA assay kit (Thermo Fisher Scientific), and the samples were separated by electrophoresis using NuPAGE 4-12% or 8% Bis-Tris gels (Invitrogen). […] The results were analyzed with SuperSignal ECL substrates (Thermo Fisher Scientific) and a ChemiDoc XRS system (Bio-Rad). […]
substance,measurement,setting,value
"miR-99b-5p mimic: miRNA mimic of miR-99b-5p (SEQ ID NO: 2, CACCCGUAGAACCGACCUUGCG), purchased from Ambion (listed as RNA, chemistry not given here; listed as Homo sapiens)",cell proliferation (BrdU labeling),[1],reduction
same,nuclear mTOR expression (Western blot),mTOR and pmTOR; miR-99b-5p vs NS transfected,significant decrease
same,nuclear pmTOR expression (Western blot),mTOR and pmTOR; miR-99b-5p vs NS transfected,significant decrease
same,"total mTOR (combined cytoplasmic and nuclear mTOR, Western blot)",mTOR and pmTOR; miR-99b-5p vs NS transfected,generalized reduction
same,cytoplasmic mTOR (Western blot),mTOR and pmTOR; upon miR-99b-5p transfection,slight to no decrease

# — patent US20240287614A1, “RECIPROCAL MICRORNA-MRNA PAIRINGS AS BIOMARKERS AND THERAPEUTIC TARGETS IN CANCER” (UNIVERSITY OF MARYLAND, EASTERN SHORE, priority 2023, published 2024)
